Measured values: PMC5458187, “Inhibitor SBFI26 suppresses the malignant progression of castration-resistant PC3-M cells by competitively binding to oncogenic FABP5” (Oncotarget, 2017)
Values joined by “and” are separate entries in the source; they are usually repeats but may differ in a detail not shown here. Equal values may be shown once.

Key:
[1] = test system: p-PPARγ1 and p-PPARγ2 in 22RV1 cells; assay: Western blot of phosphorylated PPARγ in 22RV1 cells; format: cell-based, human; settings: for effect on levels of p-PPARγ1 and 2: 22RV1, 24 h
[2] = test system: PC3-M cells; assay: Boyden chamber invasion assay; format: cell-based, human; settings: 100 μM, 24 h
Procedure: PC3-M cells in serum-free medium were seeded in the upper Boyden chamber (BD Biosciences) in triplicate at a density of 2.5 × 10^4 cells per well in serum-free medium. Complete medium was added to the lower chambers. After 3 hours of incubation, 100 μM SBFI26 was added to the upper chambers. After 24 h of incubation, cells that invaded the lower chambers were stained with crystal violet and counted with a cell counter.

[3] = test system: PC3-M cells; assay: Proliferation MTT assay; format: cell-based, human; settings: 100 μM
Procedure: (§1) PC3-M cells (5 × 10^4) were plated in triplicate in 96 well plates and incubated overnight. Cells were treated with different concentrations of SBFI26 (25–125 μM) for 24 h. Cell viability was assessed using MTT assay, as described previously. The anti-proliferative effect of the best concentration for SBFI26 was determined after 6 days of treatment.

[4] = test system: PC3-M cells; assay: Soft-agar colony formation assay; format: cell-based, human; settings: 100 μM
Procedure: Low melting agarose was seeded in 6-well plates and 5 × 10^4 cells/well layered on agar, followed by 200 μl of medium alone or medium with FABP5 inhibitor SBFI26. Colonies larger than 300 μm in each well were counted 2 weeks later in a similar way to that described previously.

[5] = test system: PC3-M cells; assay: Cell viability MTT assay; format: cell-based, human; settings: 24 h
Procedure: as §1

[6] = test system: p-PPARγ1 and p-PPARγ2 in PC3-M cells; assay: Western blot of phosphorylated PPARγ in PC3-M cells; format: cell-based, human; settings: for reduction in level of p-PPARγ1 / reduction in level of p-PPARγ2: untreated set at 1
[7] = test system: PC3-M cells; assay: Wound healing migration assay; format: cell-based, human; settings: 100 μM, 24 h; control gap closure 94%
Procedure: Wound healing migration assay was carried out to evaluate the effect of SBFI26 on the migratory rate of PC3-M cells. Wounds were generated by scratching the monolayer cells with a blue pipette tip. The floating cells were removed by washing with PBS and inhibitors were added to the culture medium. The wound was photographed under the microscope at 0, 12 and 24 h after treatment and the wound widths were assessed by quantitative analysis using ImageJ software.

[8] = test system: fatty acid uptake of PC3-M cells; assay: Fatty acid uptake assay with BODIPY-labelled fatty acid; format: cell-based, human; settings: 30 min; for cells with BODIPY-labelled fatty acid uptake (M2): control 92.9%
Procedure: Assay for fatty acid uptake was performed using red fluorescence-labelled BODIPY [57]. The fluorescence intensity from cells before and 30 minutes after adding BODIPY was measured to determine fatty acid uptake. In inhibition and competition experiments, different concentrations of unlabelled lead compound SBFI26 (50–200 μM) with the same concentration of labelled BODIPY were added directly to the highly malignant PC3-M cells.

[9] = test system: PC3-M cells inoculated into the right flank; assay: Subcutaneous nude mouse tumorigenicity assay; format: in vivo, nude mice
Procedure: PC3-M cells (2 × 10^6) in 200 μL PBS were subcutaneously injected into the right flank region of the mouse (6–8 week old) to test the suppressive effect of the inhibitors on tumorigenicity. In the first round, 3 groups of mice (8 each) were used: 1) control with PBS; 2) 1mg/kg SBFI26, injected from the 1st day after cell inoculation; 3) 1mg/kg SBFI26, injected from the 7th day after cell inoculation. In the second round, 2 groups of mice (5 each) were used and at 7 days after the cell inoculation, each group was subjected to different intra-tumoural injections: 1) control with PBS; 2) PPARγ antagonist (GW9662, 1mg/kg) (Sigma). The injections were repeated every 2 days for 30 days, tumour size was measured every 3–4 days and the volume calculated by the formula of L× W×H×0.5236 [56]. Work was performed in accordance with UKCCCR guidelines under Home Office License PPL40/2963.

[10] = test system: PPARγ; design: method as in PMID 23236415; settings: cited from earlier work
[11] = test system: PC3-M-Luc8 cells implanted orthotopically into the prostate gland; assay: Orthotopic nude mouse assay of tumorigenicity and metastasis; format: in vivo, Balb/c nude mice
Procedure: PC3-M cells were transfected with the pGL4.50 [luc2/CMV/Hygro] vector (Promega) using FuGene HD transfection reagent (Promega) following the manufacturer’s instructions. Individual colonies were isolated by ring cloning and 3 colonies that stably-expressed the highest bioluminescence signals were identified using D-luciferin (Promega) with a Varioskan Flash Reader (Thermo Scientific). Association of the luminescence intensity with the number of cells was assessed by an IVIS imaging system (Perkin Elmer). Cells (5 × 10^5) from PC3-M- luc2 colony were suspended in 30 μL PBS and orthotopically implanted into the dorsal prostate of 33 male Balb/c nude mice (Charles River, UK) (8–10 weeks old), as described previously. One week later, tumour-bearing mice were divided into 2 groups (8 each) and subjected to the following intraperitoneally injections: 1) control with PBS; 2) SBFI26, 1mg/kg. Injections were repeated every two days for 25 days and the metastatic loci were monitored weekly using the IVIS after mice were subcutaneously injected with D-luciferin (150 mg/kg). Bioluminescence images was analysed using the Living Imagine software (Xenogen) and the measurement recorded was based on total photons/second (p/s) within each defined region of interest.

[12] = target: wtrFABP5 (Homo sapiens, UniProt Q01469); assay: DAUDA displacement assay (ligand binding); settings: for relative level of fluorescence intensity after adding ligand to the DAUDA-wtrFABP5 complex: 10 μM ligand, 2 μM DAUDA, 3 μM wtrFABP5, complex without ligand 2.65 ± 0.14; for Ki: displacement of 2 μM DAUDA from 3 μM wtrFABP5, ligand 0.5–20 μM, Ki = IC50/1+(DAUDA/Kd), read-out: inhibition constant Ki (binding affinity)
Description: The fatty acid-binding ability of wtrFABP5 was examined by using the DAUDA displacement assay which used fatty acids and different chemical compounds to replace the fluorescently labelled fatty acid analogue DAUDA (Cayman). […] For each experiment, the fluorescence data were normalized to the peak fluorescent intensity, and then subtracted from the data of samples without protein. The data were fitted by nonlinear regression using GraphPad Prism software to a saturation binding curve model to estimate the apparent dissociation constant (Kd) and maximal fluorescence intensity (Bmax). […] The Ki of each ligand was determined using the equation Ki = IC50/1+ (DAUDA concentration /Kd).

Sequence of wtrFABP5 (Q01469 whole entry): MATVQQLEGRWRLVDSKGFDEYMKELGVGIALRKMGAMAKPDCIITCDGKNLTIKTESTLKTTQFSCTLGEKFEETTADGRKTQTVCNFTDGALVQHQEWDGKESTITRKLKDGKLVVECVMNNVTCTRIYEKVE

wtrFABP5: FABP5 protein (wtrFABP5) used as binding target and as treatment of 22RV1 cells
effect on levels of p-PPARγ1 and 2 [1]: significantly increased levels of both p-PPARγ1 and 2

O=C(O)C1C(c2ccccc2)C(C(=O)Oc2cccc3ccccc23)C1c1ccccc1 (stereo not drawn) [SBFI26, α-truxillic acid 1-naphthyl mono-ester]
suppression of invasion ([2]; vs control): 95.5%
mean number of invaded cells ([2]; control 22 ± 3): 1 ± 1
reduction of proliferation rate [3]: 17 times
inhibition of colony formation ([4]; 2 weeks, vs control): 100%
number of colonies formed in soft agar ([4]; after 2 weeks, control 124 ± 18): 0
reduction in cell numbers ([5]; 100 μM): 26%
concentration producing maximum suppression of viability ([5]; MTT): 100 µM
average reduction in both PPARγ activated isoforms [6]: about 50%
reduction in level of p-PPARγ1 ([6]; 24 hours): 44%
reduction in level of p-PPARγ2 ([6]; 24 hours): 46%
reduction in wound size [7]: 19%
unstained cells (M1) ([8]; 50 μM): 20.76%
cells with BODIPY-labelled fatty acid uptake (M2) ([8]; 50 μM): 79.24%
unstained cells (M1) ([8]; 100 μM): 32.31%
cells with BODIPY-labelled fatty acid uptake (M2) ([8]; 100 μM): 67.7% and 67.69%
unstained cells (M1) ([8]; 150 μM): 30.88%
cells with BODIPY-labelled fatty acid uptake (M2) ([8]; 150 μM): 69.12%
unstained cells (M1) ([8]; 200 μM): 30.79%
cells with BODIPY-labelled fatty acid uptake (M2) ([8]; 200 μM): 69.21%
suppression of tumour volume vs control ([9]; SBFI26 1 mg/kg for 31 days): 52%
average tumour volume on termination ([9]; SBFI26 1 mg/kg for 31 days, n = 8, control 627 ± 120 mm^3): 302 ± 86 mm^3
activity at PPARγ [10]: weak agonist of PPARγ
suppression in metastasis incidence compared to control ([11]; 25 days, 1 mg/kg i.p.): 50%
mice that produced visceral metastasis (number/total) ([11]; 25 days, 1 mg/kg i.p., control 7/7): 4/8
mice that produced visceral metastasis ([11]; 25 days, 1 mg/kg i.p., control 100%): 50%
metastasis sites by histological staining ([11]; H&E, control: all mice, mainly liver and lung): half of the mice developed liver metastases with no metastasis in the lung
bioluminescence signal ([11]; day 25, 1 mg/kg intraperitoneally, control 31.5 × 10^8): 6.66 × 10^8 p/sec/cm^2
average reduction in both PPARγ activated isoforms ([1]; 22RV1): 33.5%
effect on levels of p-PPARγ1 and 2 [1]: suppressed the levels of both p-PPARγ isoforms

CN(CCOc1ccc(CC2SC(=O)NC2=O)cc1)c1ccccn1 (centres unmarked) [rosiglitazone]
effect on levels of p-PPARγ isoforms ([6]; 24 hours): significantly increased levels of both p-PPARγ isoforms

CN(C)c1cccc2c(S(=O)(=O)NCCCCCCCCCCC(=O)O)cccc12 [DAUDA]
Kd ([12]; 3 μM wtrFABP5 titrated with DAUDA 0.4–3 μM, ex 345/em 530 nm, read-out: apparent dissociation constant (Kd) of DAUDA to wtrFABP5): 1.86 ± 0.16 µM
maximal fluorescence intensity (Bmax) ([12]; DAUDA titration to 3 μM wtrFABP5): 3.579

O=C(Nc1ccccc1)c1cc([N+](=O)[O-])ccc1Cl [GW9662]
reduction in level of p-PPARγ1 ([6]; 24 hours): 52%
reduction in level of p-PPARγ2 ([6]; 24 hours): 51%
suppression of tumour size vs control ([9]; GW9662 1 mg/kg from day 7): 67%
average size of tumours ([9]; GW9662 1 mg/kg intra-tumoural from day 7, n = 5, control 774 ± 202 mm^3): 252 ± 84 mm^3

CCCCC/C=C\C/C=C\CCCCCCCC(=O)O [linoleic acid]
relative level of fluorescence intensity after adding ligand to the DAUDA-wtrFABP5 complex [12]: 1.37 ± 0.07
Ki [12]: 1.57 µM

CCCCCCCC/C=C\CCCCCCCC(=O)O [oleic acid]
relative level of fluorescence intensity after adding ligand to the DAUDA-wtrFABP5 complex [12]: 1.68 ± 0.09
Ki [12]: 1.89 µM
